Columns and labels:
[1] = for molar entropy / mass density: 101.33 kPa; for mass density: X-ray diffraction
[2] = Molar enthalpy of transition or fusion; conditions: Crystal 2; DSC

O=P([O-])([O-])[O-].[Cs+].[Ni+2] [cesium nickel monophosphate]
[1]
Conditions	mass density [kg/m3]	molar entropy [J/K/mol]
5 K, Crystal 2, Small (less than 1 g) adiabatic calorimetry	–	0.4664
6 K, Crystal 2, Small (less than 1 g) adiabatic calorimetry	–	0.6618
7 K, Crystal 2, Small (less than 1 g) adiabatic calorimetry	–	0.8896
8 K, Crystal 2, Small (less than 1 g) adiabatic calorimetry	–	1.147
9 K, Crystal 2, Small (less than 1 g) adiabatic calorimetry	–	1.438
10 K, Crystal 2, Small (less than 1 g) adiabatic calorimetry	–	1.763
15 K, Crystal 2, Small (less than 1 g) adiabatic calorimetry	–	3.941
20 K, Crystal 2, Small (less than 1 g) adiabatic calorimetry	–	6.944
25 K, Crystal 2, Small (less than 1 g) adiabatic calorimetry	–	10.43
30 K, Crystal 2, Small (less than 1 g) adiabatic calorimetry	–	14.35
35 K, Crystal 2, Small (less than 1 g) adiabatic calorimetry	–	18.52
40 K, Crystal 2, Small (less than 1 g) adiabatic calorimetry	–	22.78
45 K, Crystal 2, Small (less than 1 g) adiabatic calorimetry	–	27.1
50 K, Crystal 2, Small (less than 1 g) adiabatic calorimetry	–	31.46
60 K, Crystal 2, Small (less than 1 g) adiabatic calorimetry	–	40.28
70 K, Crystal 2, Small (less than 1 g) adiabatic calorimetry	–	49.01
80 K, Crystal 2, Small (less than 1 g) adiabatic calorimetry	–	57.49
90 K, Crystal 2, Small (less than 1 g) adiabatic calorimetry	–	65.63
100 K, Crystal 2, Small (less than 1 g) adiabatic calorimetry	–	73.47
110 K, Crystal 2, Small (less than 1 g) adiabatic calorimetry	–	81.12
120 K, Crystal 2, Small (less than 1 g) adiabatic calorimetry	–	88.55
130 K, Crystal 2, Small (less than 1 g) adiabatic calorimetry	–	95.7
140 K, Crystal 2, Small (less than 1 g) adiabatic calorimetry	–	102.6
150 K, Crystal 2, Small (less than 1 g) adiabatic calorimetry	–	109.34
160 K, Crystal 2, Small (less than 1 g) adiabatic calorimetry	–	115.9
170 K, Crystal 2, Small (less than 1 g) adiabatic calorimetry	–	122.31
180 K, Crystal 2, Small (less than 1 g) adiabatic calorimetry	–	128.54
190 K, Crystal 2, Small (less than 1 g) adiabatic calorimetry	–	134.69
200 K, Crystal 2, Small (less than 1 g) adiabatic calorimetry	–	140.68
210 K, Crystal 2, Small (less than 1 g) adiabatic calorimetry	–	146.58
220 K, Crystal 2, Small (less than 1 g) adiabatic calorimetry	–	152.32
230 K, Crystal 2, Small (less than 1 g) adiabatic calorimetry	–	157.89
240 K, Crystal 2, Small (less than 1 g) adiabatic calorimetry	–	163.38
250 K, Crystal 2, Small (less than 1 g) adiabatic calorimetry	–	168.7
260 K, Crystal 2, Small (less than 1 g) adiabatic calorimetry	–	173.94
270 K, Crystal 2, Small (less than 1 g) adiabatic calorimetry	–	179.09
273.15 K, Crystal 2, Small (less than 1 g) adiabatic calorimetry	–	180.67
280 K, Crystal 2, Small (less than 1 g) adiabatic calorimetry	–	184.17
290 K, Crystal 2, Small (less than 1 g) adiabatic calorimetry	–	189.15
298 K, Crystal 2	4218.3	–
298.15 K, Crystal 2, Small (less than 1 g) adiabatic calorimetry	–	193.23
300 K, Crystal 2, Small (less than 1 g) adiabatic calorimetry	–	194.14
310 K, Crystal 2, Small (less than 1 g) adiabatic calorimetry	–	199.13
320 K, Crystal 2, Small (less than 1 g) adiabatic calorimetry	–	204.04
330 K, Crystal 2, Small (less than 1 g) adiabatic calorimetry	–	208.86
340 K, Crystal 2, Small (less than 1 g) adiabatic calorimetry	–	213.68
350 K, Crystal 2, Small (less than 1 g) adiabatic calorimetry	–	218.42
360 K, Crystal 2, Small (less than 1 g) adiabatic calorimetry	–	223.08
370 K, Crystal 2, Small (less than 1 g) adiabatic calorimetry	–	227.82
380 K, Crystal 2, Small (less than 1 g) adiabatic calorimetry	–	232.47
382.8 K, Crystal 1, DSC	–	237.46
382.8 K, Crystal 2, Small (less than 1 g) adiabatic calorimetry	–	233.72
390 K, Crystal 1, DSC	–	240.7
400 K, Crystal 1, DSC	–	245.19
410 K, Crystal 1, DSC	–	249.52
420 K, Crystal 1, DSC	–	253.76
430 K, Crystal 1, DSC	–	257.83
440 K, Crystal 1, DSC	–	261.82
450 K, Crystal 1, DSC	–	265.73
460 K, Crystal 1, DSC	–	269.64
470 K, Crystal 1, DSC	–	273.38
473 K, Crystal 1	4124	–
480 K, Crystal 1, DSC	–	277.04
490 K, Crystal 1, DSC	–	280.7
500 K, Crystal 1, DSC	–	284.27
510 K, Crystal 1, DSC	–	287.76
520 K, Crystal 1, DSC	–	291.17
530 K, Crystal 1, DSC	–	294.58
540 K, Crystal 1, DSC	–	297.91
550 K, Crystal 1, DSC	–	301.23
560 K, Crystal 1, DSC	–	304.48
570 K, Crystal 1, DSC	–	307.64
573 K, Crystal 1	4090	–
580 K, Crystal 1, DSC	–	310.79
590 K, Crystal 1, DSC	–	313.87
600 K, Crystal 1, DSC	–	316.86
610 K, Crystal 1, DSC	–	319.86
620 K, Crystal 1, DSC	–	322.85
630 K, Crystal 1, DSC	–	325.76
640 K, Crystal 1, DSC	–	328.67
650 K, Crystal 1, DSC	–	331.58
673 K, Crystal 1	4080	–
773 K, Crystal 1	4040	–
873 K, Crystal 1	4030	–
973 K, Crystal 1	4000	–
1073 K, Crystal 1	3980	–

Conditions	Triple point temperature [K]
[1], Crystal 2, DSC	382.8

Conditions	Molar enthalpy of transition or fusion [kcal/mol]
[2]	0.336

— the NIST ThermoML archive (doi:10.1016/j.jct.2018.10.006)
